Assay results: ChEMBL document CHEMBL1136709, “Synthesis and estrogen receptor binding affinities of 7-hydroxy-3-(4-hydroxyphenyl)-4H-1-benzopyran-4-ones containing a basic side chain” (Bioorg Med Chem Lett, 2003)

Biological target: T1, Estrogen receptor (Homo sapiens, UniProt P03372)
T1 sequence (P03372 whole entry): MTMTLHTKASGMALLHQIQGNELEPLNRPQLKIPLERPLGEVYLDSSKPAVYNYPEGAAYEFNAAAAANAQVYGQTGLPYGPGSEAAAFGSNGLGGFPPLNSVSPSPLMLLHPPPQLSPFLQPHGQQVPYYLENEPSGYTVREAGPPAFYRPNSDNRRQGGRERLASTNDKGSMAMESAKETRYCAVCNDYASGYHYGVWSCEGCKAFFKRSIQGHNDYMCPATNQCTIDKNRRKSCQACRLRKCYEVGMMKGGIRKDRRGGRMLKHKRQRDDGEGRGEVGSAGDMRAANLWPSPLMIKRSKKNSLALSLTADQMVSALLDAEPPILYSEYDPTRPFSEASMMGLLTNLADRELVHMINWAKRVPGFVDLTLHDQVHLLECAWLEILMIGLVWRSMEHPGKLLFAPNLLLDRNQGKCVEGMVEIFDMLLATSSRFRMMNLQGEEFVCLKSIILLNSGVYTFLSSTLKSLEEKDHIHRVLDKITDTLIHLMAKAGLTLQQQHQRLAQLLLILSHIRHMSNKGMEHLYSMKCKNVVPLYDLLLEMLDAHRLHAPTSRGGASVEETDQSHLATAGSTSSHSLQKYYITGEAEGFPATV
Assay: Binding affinity for Estrogen receptor alpha

Row | Ki [µM] | Structure (SMILES) | EC50 [µM]
1 | 0.0039 | O=C(c1ccc(OCCN2CCCCC2)cc1)c1oc2cc(O)ccc2c(=O)c1-c1ccc(O)cc1 | 
2 |  | O=c1c(-c2ccc(O)cc2)c(Sc2ccc(O)cc2)oc2cc(O)ccc12 | 1.86
3 |  | O=c1c(-c2ccc(O)cc2)c(Oc2ccc(OCCN3CCCCC3)cc2)oc2cc(O)ccc12 | 0.2
4 |  | O=c1c(-c2ccc(O)cc2)c(Oc2ccc(O)cc2)oc2cc(O)ccc12 | 1.74
5 |  | O=c1c(-c2ccc(O)cc2)c(Sc2ccc(OCCN3CCCCC3)cc2)oc2cc(O)ccc12 | 0.77
